PMC6248945, “Antibacterial properties of the pituitary adenylate cyclase-activating polypeptide: A new human antimicrobial peptide” (PLoS ONE, 2018)
In brackets after ≈: the same amount, converted by molar mass. Like-named read-outs stand apart in the source and are kept apart here. Where a SMILES comes first, the peptide text is derived from it.

Legend:
Escherichia coli (JM109) = experiment: MIC, CLSI microdilution; assay type: cell-based; details: MHB, 37 °C, 20h, OD read-out, at least triplicate
Procedure: Assays were performed according to the CLSI microdilution method. Briefly, the bacterial strains were inoculated and allowed to reach an OD600 of 0.08–0.13 prior to dilution to 10^6 CFU/mL in Mueller-Hinton broth (MHB). A bacterial suspension (50 μL) was then added to each well of a 96-well microplate containing serially diluted peptide solutions (50 μL in MHB) and incubated at 37 °C for 20h. A well containing sterilized medium was used as a sterility control and another well containing no added peptide served as a growth control.

[1] = test system: Pseudomonas putida (KT2440); details: 20 h
[2] = test system: Pseudomonas fluorescens (MF37); details: 20 h
[3] = test system: Pseudomonas aeruginosa (PA14); details: PA14, 20 h
[4] = test system: Burkholderia cenocepacia (J2315); details: 20 h
[5] = test system: Burkholderia thailendensis (ATCC700388); details: CLSI microdilution, MHB, 37 °C, 20h, OD read-out; at least triplicate
[6] = test system: Serratia marcescens (ATCC14756); details: ATCC14756, 20 h
[7] = test system: Bacillus circulans (LSPQ3543); details: 20 h
[8] = test system: Bacillus cereus (ATCC11778); details: ATCC11778, 20 h
[9] = test system: Actinobacillus pleuropneumoniae (4074); details: 20 h
Bacillus subtilis (PY79) = details: PY79, 20 h
Bacillus velezensis = details: 20 h
[10] = test system: Bacillus amyloliquefaciens (LMG22478); details: LMG22478, 20 h
[11] = test system: Staphylococcus aureus (ATCC6538#P); details: ATCC6538, 20 h
[12] = test system: Staphylococcus aureus (Newman); details: 20 h
[13] = test system: Pseudomonas aeruginosa (ATCC33350-Sero-2); details: ATCC33350, 20 h
[14] = test system: Escherichia coli ATCC25922; details: ATCC25922, 20 h
[15] = test system: Escherichia coli (O157 :H7); details: CLSI microdilution, MHB, 37 °C, 20h, OD read-out; at least triplicate
[16] = test system: Burkholderia cenocepacia (K56-2); details: 20 h
[17] = test system: Burkholderia cenocepacia (LMG18829); details: LMG18829, 20 h
[18] = test system: Burkholderia cenocepacia (LMG19240); details: CLSI microdilution, MHB, 37 °C, 20h, OD read-out; at least triplicate
[19] = test system: Burkholderia cenocepacia (CEP0511 Gvar3b); details: CLSI microdilution, MHB, 37 °C, 20h, OD read-out; at least triplicate
DPP-IV = test system: DPP-IV; set-up: method as in PMID 18353507; details: cited from earlier work
[20] = relative to PACAP38; cited from earlier work

Structure (SMILES)	MIC, Escherichia coli (JM109) (Escherichia coli (JM109))	MIC, Pseudomonas putida (KT2440) [1]	MIC, Pseudomonas fluorescens (MF37) [2]	MIC, Pseudomonas aeruginosa (PA14) [3]	MIC, Burkholderia cenocepacia (J2315) [4]	MIC, Burkholderia thailendensis (ATCC700388) [5]	MIC, Serratia marcescens (ATCC14756) [6]	MIC, Bacillus circulans (LSPQ3543) [7]	MIC, Bacillus cereus (ATCC11778) [8]	MIC, Actinobacillus pleuropneumoniae [9]	MIC, Bacillus subtilis (PY79) (Bacillus subtilis (PY79))	MIC, Bacillus velezensis (Bacillus velezensis)	MIC, Bacillus amyloliquefaciens [10]	MIC, Staphylococcus aureus (ATCC6538#P) [11]	MIC, Staphylococcus aureus (Newman) [12]	MIC, Pseudomonas aeruginosa (ATCC33350-Sero-2) [13]	MIC, Escherichia coli ATCC25922 [14]	MIC, Escherichia coli (O157 :H7) [15]	MIC, Burkholderia cenocepacia (K56-2) [16]	MIC, Burkholderia cenocepacia (LMG18829) [17]	further results
CC[C@H](C)[C@H](NC(=O)CNC(=O)[C@H](CC(=O)O)NC(=O)[C@H](CO)NC(=O)[C@@H](N)Cc1c[nH]cn1)C(=O)N[C@@H](Cc1ccccc1)C(=O)N[C@H](C(=O)N[C@@H](CC(=O)O)C(=O)N[C@@H](CO)C(=O)N[C@@H](Cc1ccc(O)cc1)C(=O)N[C@@H](CO)C(=O)N[C@@H](CCCNC(=N)N)C(=O)N[C@@H](Cc1ccc(O)cc1)C(=O)N[C@@H](CCCNC(=N)N)C(=O)N[C@@H](C)C(=O)N[C@@H](CCC(N)=O)C(=O)N[C@@H](CCSC)C(=O)N[C@@H](C)C(=O)N[C@H](C(=O)N[C@@H](CCCCN)C(=O)N[C@@H](CCCCN)C(=O)N[C@@H](Cc1ccc(O)cc1)C(=O)N[C@@H](CC(C)C)C(=O)N[C@@H](C)C(=O)N[C@@H](C)C(=O)N[C@H](C(=O)N[C@@H](CC(C)C)C(=O)NCC(=O)N[C@@H](CCCCN)C(=O)N[C@@H](CCCNC(=N)N)C(=O)N[C@@H](Cc1ccc(O)cc1)C(=O)N[C@@H](CCCCN)C(=O)N[C@@H](CCC(N)=O)C(=O)N[C@@H](CCCNC(=N)N)C(=O)N[C@H](C(=O)N[C@@H](CCCCN)C(=O)N[C@@H](CC(N)=O)C(=O)N[C@@H](CCCCN)C(N)=O)C(C)C)C(C)C)C(C)C)[C@@H](C)O [compound 3, [Ala^15]PACAP38] (H-HSDGIFTDSYSRYRAQMAVKKYLAAVLGKRYKQRVKNK-NH2)	93 µg/mL (≈ 20.8 µM)	93 µg/mL (≈ 20.8 µM)	>200 µg/mL	>200 µg/mL	9 µg/mL (≈ 2.01 µM)	>200 µg/mL	>200 µg/mL	21 µg/mL (≈ 4.69 µM)	>200 µg/mL	112 µg/mL (≈ 25 µM)	5 µg/mL (≈ 1.12 µM)	33 µg/mL (≈ 7.37 µM)	10 µg/mL (≈ 2.23 µM)	>200 µg/mL	>200 µg/mL	>200 µg/mL	>200 µg/mL	>200 µg/mL	>200 µg/mL	>200 µg/mL	MIC, Burkholderia cenocepacia (LMG19240) [18]: >200 µg/mL; MIC, Burkholderia cenocepacia (CEP0511 Gvar3b) [19]: >200 µg/mL; MIC, Bacillus subtilis (2597) (Bacillus subtilis (2597); 2597, 20 h): 111 µg/mL (≈ 24.8 µM); Metabolic stability against DPP-IV (DPP-IV): improved metabolic stability; Metabolic stability in human plasma [20]: improved metabolic stability
CC[C@H](C)[C@H](NC(=O)CNC(=O)[C@H](CC(=O)O)NC(=O)[C@H](CO)NC(=O)[C@@H](N)Cc1c[nH]cn1)C(=O)N[C@@H](Cc1ccccc1)C(=O)N[C@H](C(=O)N[C@@H](CC(=O)O)C(=O)N[C@@H](CO)C(=O)N[C@@H](Cc1ccc(O)cc1)C(=O)N[C@@H](CO)C(=O)N[C@@H](CCCNC(=N)N)C(=O)N[C@@H](Cc1ccc(O)cc1)C(=O)N[C@@H](CCCNC(=N)N)C(=O)N[C@@H](CCCCN)C(=O)N[C@@H](CCC(N)=O)C(=O)N[C@@H](CCSC)C(=O)N[C@@H](C)C(=O)N[C@H](C(=O)N[C@@H](C)C(=O)N[C@@H](CCCCN)C(=O)N[C@@H](Cc1ccc(O)cc1)C(=O)N[C@@H](CC(C)C)C(=O)N[C@@H](C)C(=O)N[C@@H](C)C(=O)N[C@H](C(=O)N[C@@H](CC(C)C)C(=O)NCC(=O)N[C@@H](CCCCN)C(=O)N[C@@H](CCCNC(=N)N)C(=O)N[C@@H](Cc1ccc(O)cc1)C(=O)N[C@@H](CCCCN)C(=O)N[C@@H](CCC(N)=O)C(=O)N[C@@H](CCCNC(=N)N)C(=O)N[C@H](C(=O)N[C@@H](CCCCN)C(=O)N[C@@H](CC(N)=O)C(=O)N[C@@H](CCCCN)C(N)=O)C(C)C)C(C)C)C(C)C)[C@@H](C)O [compound 4, [Ala^20]PACAP38] (H-HSDGIFTDSYSRYRKQMAVAKYLAAVLGKRYKQRVKNK-NH2)	28 µg/mL (≈ 6.25 µM)	56 µg/mL (≈ 12.5 µM)	112 µg/mL (≈ 25 µM)	112 µg/mL (≈ 25 µM)	5 µg/mL (≈ 1.12 µM)	>200 µg/mL	>200 µg/mL	47 µg/mL (≈ 10.5 µM)	>200 µg/mL	>200 µg/mL	3 µg/mL (≈ 0.67 µM)	61 µg/mL (≈ 13.6 µM)	7 µg/mL (≈ 1.56 µM)	>200 µg/mL	>200 µg/mL	>200 µg/mL	>200 µg/mL	168 µg/mL (≈ 37.5 µM)	>200 µg/mL	>200 µg/mL	MIC, Burkholderia cenocepacia (LMG19240) [18]: >200 µg/mL; MIC, Burkholderia cenocepacia (CEP0511 Gvar3b) [19]: >200 µg/mL; MIC, Bacillus subtilis (2597) (Bacillus subtilis (2597); CLSI microdilution, MHB, 37 °C, 20h, OD read-out, at least triplicate): 168 µg/mL (≈ 37.5 µM); Metabolic stability against DPP-IV (DPP-IV): improved metabolic stability; Metabolic stability in human plasma [20]: improved metabolic stability
CC[C@H](C)[C@H](NC(=O)CNC(=O)[C@H](CC(=O)O)NC(=O)[C@H](CO)NC(=O)[C@@H](N)Cc1c[nH]cn1)C(=O)N[C@@H](Cc1ccccc1)C(=O)N[C@H](C(=O)N[C@@H](CC(=O)O)C(=O)N[C@@H](CO)C(=O)N[C@@H](Cc1ccc(O)cc1)C(=O)N[C@@H](CO)C(=O)N[C@@H](CCCNC(=N)N)C(=O)N[C@@H](Cc1ccc(O)cc1)C(=O)N[C@@H](CCCNC(=N)N)C(=O)N[C@@H](CCCCN)C(=O)N[C@@H](CCC(N)=O)C(=O)N[C@@H](CCSC)C(=O)N[C@@H](C)C(=O)N[C@H](C(=O)N[C@@H](CCCCN)C(=O)N[C@@H](C)C(=O)N[C@@H](Cc1ccc(O)cc1)C(=O)N[C@@H](CC(C)C)C(=O)N[C@@H](C)C(=O)N[C@@H](C)C(=O)N[C@H](C(=O)N[C@@H](CC(C)C)C(=O)NCC(=O)N[C@@H](CCCCN)C(=O)N[C@@H](CCCNC(=N)N)C(=O)N[C@@H](Cc1ccc(O)cc1)C(=O)N[C@@H](CCCCN)C(=O)N[C@@H](CCC(N)=O)C(=O)N[C@@H](CCCNC(=N)N)C(=O)N[C@H](C(=O)N[C@@H](CCCCN)C(=O)N[C@@H](CC(N)=O)C(=O)N[C@@H](CCCCN)C(N)=O)C(C)C)C(C)C)C(C)C)[C@@H](C)O [compound 5, [Ala^21]PACAP38] (H-HSDGIFTDSYSRYRKQMAVKAYLAAVLGKRYKQRVKNK-NH2)	112 µg/mL (≈ 25 µM)	186 µg/mL (≈ 41.5 µM)	>200 µg/mL	>200 µg/mL	20 µg/mL (≈ 4.47 µM)	>200 µg/mL	>200 µg/mL	84 µg/mL (≈ 18.8 µM)	>200 µg/mL	>200 µg/mL	42 µg/mL (≈ 9.38 µM)	168 µg/mL (≈ 37.5 µM)	20 µg/mL (≈ 4.47 µM)	>200 µg/mL	>200 µg/mL	>200 µg/mL	>200 µg/mL	>200 µg/mL	>200 µg/mL	>200 µg/mL	MIC, Burkholderia cenocepacia (LMG19240) [18]: >200 µg/mL; MIC, Burkholderia cenocepacia (CEP0511 Gvar3b) [19]: >200 µg/mL; MIC, Bacillus subtilis (2597) (Bacillus subtilis (2597); 2597, 20 h): 56 µg/mL (≈ 12.5 µM); Metabolic stability against DPP-IV (DPP-IV): improved metabolic stability; Metabolic stability in human plasma [20]: improved metabolic stability
